Laboratory results published in PMC11546255, “Exploring the Frontier of Cyclic Dipeptides: A Bioinformatics Approach to Potential Therapeutic Applications in Schizophrenia” (International Journal of Molecular Sciences, 2024).

How the values were obtained:
human SIGMA1 receptor [1] = molecular target: T1, human SIGMA1 receptor (Homo sapiens, UniProt Q99720); assay: radioligand binding; filtration competition assay: membranes of HEK293 cells expressing human SIGMA1 (13 ug per well), [3H]DTG at 0.005 uM displaced by the test compound, max dose 20 uM, room temperature, GF/B filter plates
T1 sequence (Q99720 whole entry): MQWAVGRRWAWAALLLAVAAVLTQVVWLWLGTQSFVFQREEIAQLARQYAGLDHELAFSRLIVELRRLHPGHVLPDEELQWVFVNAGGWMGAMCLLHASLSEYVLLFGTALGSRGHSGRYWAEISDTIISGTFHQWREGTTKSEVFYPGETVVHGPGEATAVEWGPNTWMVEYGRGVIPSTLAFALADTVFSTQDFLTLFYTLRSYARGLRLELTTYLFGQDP

human SIGMA1 receptor [2] = molecular target: T1, human SIGMA1 receptor; assay: SIGMA1 filtration radioligand binding assay ([3H]DTG, membranes of transfected HEK293 cells); parameters: expressed in transfected cells; membrane/cell debris preparation; details: for SIGMA1 % Inhibition of Max Dose / inhibition at 20 µM: Max Dose 20.000 μM
Description: For SIGMA1 receptor expression in HEK293 cells, the human SIGMA1 receptor (U75283) in pcDNA 3.1(+) (Promega Corp., Madison, WI, USA) was used. In total, 2 μg of DNA was transfected in HEK293 cells (1,000,000 cells/dish) using FuGENE® HD Transfection Reagent (Promega Corp., Madison, WI, USA) according to the manufacturer’s recommendations. After 24 h, the medium was replaced by a medium containing the G418 antibiotic (300 μg/mL) (Burlington, MA, USA). The survival clones were scraped and cultured in individual dishes. After the cell amplification, they were harvested with trypsin and homogenized, then centrifuged at 50,000× g for 1 h, and the cell debris was used for the binding assay.
A SIGMA1 receptor-enriched membrane preparation was utilized for the binding assays at a 1.1 mg/mL concentration. Each assay well was loaded with 13 μg of this membrane preparation to ensure consistent receptor availability across all experimental conditions.
This methodical preparation ensures that the assay conditions are reproducible and that the concentration-dependent effects of the compounds can be accurately evaluated.
Reference and test compounds were diluted and transferred sequentially to the assay plate. We added non-specific binding compounds (low control, LC) and DMSO as the total binding high control (HC) according to the non-specific binding plate layout. We added 100 μL of the membrane stock solution and 100 μL of the radiolabeled ligand to the plate. We sealed the plates and shook them at 300 rpm under specified conditions. We filtered the reaction mixture through GF/B plates using a Filtermate-Harvester (PerkinElmer, Waltham, MA, USA, Cat: C961961), followed by washing with cold wash buffer, and dried and sealed the filter plates.
We added non-specific binding compounds (as the LC) and DMSO as the total binding HC according to the non-specific binding plate layout. Then, we added 100 μL of the membrane stock solution and 100 μL of the radiolabeled ligand to the plate. We sealed the plates and shook them at 300 rpm under specified conditions. […] After the binding experiment, we filtered the reaction mixture through GF/B plates using a Perkin Elmer Filtermate Harvester, washing each plate six times with a cold wash buffer. We dried the filter plates for 1 h at 50 °C. After drying, we sealed the bottom of the filter plate wells with Perkin Elmer Unifilter-96 backing tape. […] We counted the 3H on the filters using a Perkin Elmer MicroBeta2 Reader.
We analyzed the data using Prism 5. We fitted dose–response curves and determined the half maximal inhibitory concentration (IC50) using the “log(inhibitor) vs. response-variable slope” model.
We used the Z’-Prime equation for quality control, which can be written as follows: Z′ Factor=1−3×STDEVHC+3×STDEVLC/AVGHC − AVGLC∗100% where STDEVHC is the average standard deviation of MAX, STDEVLC is the average standard deviation of MIN, AVGHC is the average of MAX, and AVGLC is the average of MIN. Z’ must be ≥0.5 as the quality control standard.

[3] = [3H]DTG 0.005 μM, membranes of HEK293 cells expressing human SIGMA1, read-out: SIGMA1 IC50
[4] = [3H]DTG 0.005 μM, membranes of HEK293 cells expressing human SIGMA1, read-out: SIGMA1 Ki

Compound	SIGMA1 % Inhibition of Max Dose (human SIGMA1 receptor [2]) [%]	IC50 (human SIGMA1 receptor [2]; [3]) [µM]	Ki (human SIGMA1 receptor [2]; [4]) [µM]	also measured
cyclo(Ala-His)				% Inhibition of Max Dose (human SIGMA1 receptor [1]): 50.2%; IC50 (human SIGMA1 receptor [1]): 19.4 µM
O=C1NC(Cc2ccc(O)cc2)C(=O)N2CC(O)CC12 (centres unmarked) [Cyclo(Hyp-Tyr)]	49.80	> 20	> 17.4	
O=C1N[C@@H](Cc2ccc(O)cc2)C(=O)N[C@H]1Cc1ccc(O)cc1 [Cyclo(Tyr-Tyr)]	40.29	> 20	> 17.4	
C[C@@H]1NC(=O)[C@H](Cc2cnc[nH]2)NC1=O [Cyclo(Ala-His)]		19.4	16.9	inhibition at 20 µM (human SIGMA1 receptor [2]): 50.2%
CC(C)C1NC(=O)CNC1=O (centres unmarked) [Cyclo(Val-Gly)]				Ki (human SIGMA1 receptor [2]): 9.95 µM; inhibition at 20 µM (human SIGMA1 receptor [2]): 61.9%; IC50 (human SIGMA1 receptor [2]; SIGMA1 IC50, [3H]DTG 0.005 μM, membranes of HEK293 cells expressing human SIGMA1): 11.5 µM
C[C@@H]1NC(=O)[C@H](CCC(N)=O)NC1=O [Cyclo(Ala-Gln)]		13.4	11.7	inhibition at 20 µM (human SIGMA1 receptor [2]): 59.7%
O=C1CNC(=O)[C@H](Cc2ccc(O)cc2)N1 [Cyclo(Gly-Tyr)]	42.82	> 20	> 17.4	
CC1NC(=O)CNC1=O (centres unmarked) [Cyclo(Ala-Gly)]	44.60	> 20	> 17.4	
O=C1N[C@@H](Cc2ccccc2)C(=O)N[C@H]1Cc1ccccc1 [Cyclo(Phe-Phe)]	39.40	> 20	> 17.4	
O=C1CNC(=O)CN1 [Cyclo(Gly-Gly)]	3.200	> 20	> 17.4	
O=C1NC(Cc2ccccc2)C(=O)N2CCCC12 (centres unmarked) [Cyclo(Phe-Pro)]	24.20	> 20	> 17.4	
cyclo(Val-Gly)				% Inhibition of Max Dose (human SIGMA1 receptor [1]): 61.9%; IC50 (human SIGMA1 receptor [1]): 11.5 µM
cyclo(Ala-Gln)				% Inhibition of Max Dose (human SIGMA1 receptor [1]): 59.7%; IC50 (human SIGMA1 receptor [1]): 13.4 µM
O=C1NC(Cc2ccccc2)C(=O)N2CC(O)CC12 (centres unmarked) [Cyclo(Hyp-Phe)]	54.26	> 20	> 17.4	
cyclo(Val-Val)				IC50 (human SIGMA1 receptor [1]): > 20 µM; Ki (human SIGMA1 receptor [1]): > 17.4 µM
